Assay results: PMC9289467, “A Novel Multifunctional 5,6-Dimethoxy-Indanone-Chalcone-Carbamate Hybrids Alleviates Cognitive Decline in Alzheimer’s Disease by Dual Inhibition of Acetylcholinesterase and Inflammation” (Frontiers in Aging Neuroscience, 2022)

How the values were obtained:
[1] = test system: spatial learning and memory; assay: Morris water maze; type: in vivo, APP/PS1 mice; details: after 5 months of treatment
Procedure: (§1) APP/PS1 mice of ages 6 months were randomly divided into vehicle (APP/PS1, n = 10) and treatment groups (AP5, n = 10), which were intragastrically administered with AP5 (40 mg/kg) once daily for consecutive 5 months. AP5 was dissolved in distilled water containing 1% sodium carboxymethyl cellulose.
To investigate whether AP5 treatment plays a key role in cognition improvement of APP/PS1 mice models, the five different behavioral tests were sequentially carried out in the following order: open field, novel object recognition task, spatial object-location task, Y-maze, and Morris water maze (MWM). AP5 was also administered daily during the test periods. A set of video analysis systems (TopScan, CleverSys, United States) was used throughout the behavioral tests. […]
the familiar object) / total exploration time for the novel and familiar object.
For the spatial object location task (an object moved to a new location), mice first explored the two objects placed in two corners of the open field for 5 min in training period. After 1 h or 24 h, the mice received a 5 min retention trial with a new spatial configuration with an object moved from one corner to the opposite corner of the open field.The discrimination index was calculated and defined as: (time spent exploring the displaced object-time spent exploring nondisplaced objects) / total exploration time for the two objects during the 5 min retention trial.
Work on spatial recognition memory was tested by Y-maze. The symmetrical Y-maze consisted of three arms joined in the middle to form a Y shape. […] The ratio between the distance spent in the novel arm and the totaldistance travelled in the maze was quantified as preference index. […]
guided to platform and allowed to stay on it for 30 s. The time (escape latency) for each mouse to find the way and reach the target platform was analyzed. […] The parameters measured during the probe trialincluded number of platform crossing and time spent in the target quadrant. […]

[2] = target: T1, AChE-induced Aβ40 fibril formation (Homo sapiens, UniProt P22303); assay: ThT kinetics of AChE-induced Aβ40 fibril formation; type: biochemical; details: co-incubation of AP5 and Aβ40 with AChE, 24-h kinetic ThT assay
T1 construct: purchased Roche (AChE); Invitrogen (Aβ40) R005282 (AChE); 03-136 (Aβ40)
Procedure: The effects of AP5 on Aβ fibril formation and pre-formed Aβ fibrils disaggregation were determined using a previously described method of Thioflavin T (ThT, T3516, Sigma Aldrich, St. Louis, MO, United States) fluorometry ([Jan et al., 2010]).
Supplementary materials and methods … ...1 […]
Supplementary Figure 1 … .....7
Supplementary Figure 2 … .....7
Supplementary materials and methods
Prepations ofspecimen for pharmacokinetics analysis
24 h afterdosing. Brains were collected at0, 0.25, 0.5,2, 4,8 and 24 h after administration.Plasma extractions were performed by adding 90 μL methanol and 2 μL internalstandard letrozole (500 ng/mL) to a30 µL plasma sample. […]
Then 90 μL methanol and 2 μL letrozolewere added to 30 µl brainhomogenates. The samples were vortexed for 3 min and centrifuged 15 min at25,000 g.The plasma and brainhomogenate were analyzed by UPLC-TSQ/MS (Thermo Fisher Scientific, Waltham, MA, USA). […]
To study the kinetics of Aβ-AChE fibril complex formation, 10 μM Aβ was mixed with AChE (R005282, Roche, Basel, Switzerland) and different concentrations AP5 and incubated with 10 μM ThT and 50 mM glycine-NaOH (pH 8.5) at 37°C, the ThT fluorescence was continually measured for 24 h at 30 min intervals. […] Fluorescence emission at485 nm was measured on a Spectra MAX GeminiXS fluorometerat an excitation wavelength of 450 nm. […]

[3] = test system: hippocampal gene expression; assay: Bulk RNA-seq of hippocampal tissues; type: in vivo, APP/PS1 mice
Procedure: as §1
Hippocampal specimens from WT, APP/PS1, and AP5 mice stored in dry ice were sent to Beijing Genomics Institute (Wuhan, China), and the total RNA was extracted for RNA sequencing on BGISEQ-500 system. Moreover, the differentially expressed genes between APP/PS1 and AP5 were analyzed after RNA sequencing.

T1 sequence (P22303 32-614): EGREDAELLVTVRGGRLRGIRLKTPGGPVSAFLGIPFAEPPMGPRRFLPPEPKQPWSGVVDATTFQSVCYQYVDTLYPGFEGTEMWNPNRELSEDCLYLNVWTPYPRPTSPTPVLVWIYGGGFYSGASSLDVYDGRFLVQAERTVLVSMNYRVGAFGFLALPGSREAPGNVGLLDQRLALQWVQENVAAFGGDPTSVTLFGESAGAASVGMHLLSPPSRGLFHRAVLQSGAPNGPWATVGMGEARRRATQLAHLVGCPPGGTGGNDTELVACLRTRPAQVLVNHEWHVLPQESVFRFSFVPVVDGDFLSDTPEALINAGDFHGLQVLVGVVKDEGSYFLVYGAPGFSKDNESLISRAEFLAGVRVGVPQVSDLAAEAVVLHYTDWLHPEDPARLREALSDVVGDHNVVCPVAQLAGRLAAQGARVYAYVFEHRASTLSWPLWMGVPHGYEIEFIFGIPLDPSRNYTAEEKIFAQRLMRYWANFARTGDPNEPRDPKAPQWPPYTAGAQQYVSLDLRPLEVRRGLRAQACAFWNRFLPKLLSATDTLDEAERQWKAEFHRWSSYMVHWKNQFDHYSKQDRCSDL

CCN(C)C(=O)Oc1cccc(/C=C2\Cc3cc(OC)c(OC)cc3C2=O)c1 [AP5, (E)-3-((5,6-dimethoxy-1-oxo-1,3-dihydro-2H-inden-2-ylidene)-methyl)phenylethyl(methyl)carbamate]
platform crossing number ([1]; MWM probe trial): performed much better
time spent in the target quadrant ([1]; MWM probe trial): performed much better
escape latency ([1]; MWM): performed much better
ThT intensity, AChE-induced Aβ40 fibril formation [2]: substantially lowered the ThT intensity in a dose-dependent manner
expression of genes linked to pan-reactive and A1 astrocytes ([3]; hippocampus RNA-seq): reduced the expression of most genes
expression of signature genes of A2-specific astrocytes ([3]; hippocampus RNA-seq, among groups): No differences
DAM gene expression ([3]; hippocampus, AP5-treated vs untreated APP/PS1 mice): increase in DAM gene expression
